Like-named read-outs stand apart in the source and are kept apart here.
Assays:
[1] = system: DNA biosynthesis in SCC-25 cells; experiment: [3H]-thymidine incorporation (DNA biosynthesis / proliferation) assay; type: cell-based; conditions: Homo sapiens; 48 h treatment of SCC-25 cells (as stated in abstract); read-out: DNA biosynthesis-inhibitory activity IC50
Protocol: Considering this fact, an evaluation determining whether the cytotoxicity of the samples was the result of their influence on the biosynthesis of cell DNA was carried out by assessing the capability of intracellular thymidine incorporation.
The proliferation of the tested cells was estimated as [^3H]-thymidine incorporation into the DNA of the cells treated with the studied samples [40]. Firstly, cells (1 × 10^4 per well) were placed in 24-well plates and were allowed to adhere for 24 h. […] After incubation for 24 h and 48 h at 37 °C, the cells were rinsed with PBS and solubilized with 1 mL of 0.1 M NaOH (sodium hydroxide) containing 1% SDS (sodium dodecyl sulfate). Then, radioactivity was recorded in a Liquid Scintillation Analyzer (Perkin-Elmer, Waltham, MA, USA) after correction to 9 mL with scintillation liquid.

[2] = system: SCC-25 squamous carcinoma cells; experiment: Morphological profile of SCC-25 cells (microphotographs); type: cell-based, human; conditions: 24 h and 48 h; extracts 100 µg/mL, compounds 100 µM
normal fibroblasts = experiment: MTT cell viability assay, normal fibroblasts; type: cell-based, human; conditions: read-out: IC50 of viability, Fibroblasts
Protocol: (§1) The cell viability and proliferation assays were performed on the human tongue squamous cell line (SCC-25). The cells were obtained from ATCC (CRL-1628, American Type Culture Collection, Manassas, VA, USA) and cultured in a 1:1 mixture of DMEM (Dulbecco’s minimal essential medium) and Ham’s F12 medium (Thermo Fisher Scientific, Waltham, MA, USA, 31330038) supplemented with 400 ng/mL hydrocortisone (Sigma-Aldrich, Burlington, MA, USA, H0135), 10% FBS (fetal bovine serum, Thermo Fisher Scientific, Waltham, MA, USA, 10270106), and penicillin–streptomycin solution (Thermo Fisher Scientific, Waltham, MA, USA, 15140122). Furthermore, for the cytotoxicity assay, human skin fibroblasts (CCD25Sk) cultured in DMEM (Thermo Fisher Scientific, Waltham, MA, USA, 41966029) supplemented with 10% FBS and penicillin-streptomycin solution were used. The cells were incubated at 37 °C in the air with 5% CO2. […] MTT (M5655), SDS (L3771), and cisplatin (cPT), which was used as a positive control (P4394), were purchased from Sigma-Aldrich (Burlington, MA, USA).
(§2) The cell viability assay leans on the transformation of yellow tetrazolinum bromide MTT solution to the purple derivative of formazan via succinate dehydrogenase, an enzyme present in viable cells. Cells were cultured (1 × 10^4 per well) on a 96-well plate to receive 70% of their confluency. After 24 h and 48 h of incubation with the studied samples (prepared as DMSO solutions directly before the assay), the cells were washed with PBS (phosphate-buffered saline). Subsequently, the MTT solution was added, and the plates were incubated at 37 °C for 2 h. Then, formazan crystals were dissolved in 200 μL of DMSO with Sorensen’s glycine buffer and were shacked for 10 min.

melanoma cells = conditions: cited from earlier work
[3] = system: human tongue squamous carcinoma cells SCC-25; experiment: MTT cell viability assay, SCC-25 cells; type: cell-based; conditions: read-out: IC50 of viability, SCC-25
Protocol: as §1, §2

[4] = Homo sapiens, SCC-25, 24 h, MTT, compounds 6.25–200 µM
[5] = Homo sapiens, SCC-25, 48 h, MTT, compounds 6.25–200 µM
[6] = 24 h, MTT, compounds 6.25–200 µM
[7] = 48 h, MTT, compounds 6.25–200 µM

## O=C(CC(=O)c1ccccc1)c1ccccc1 [Compound 1, 1,3-diphenylpropane-1,3-dione]
[1]
  IC50: 29.1 ± 1.45 µM
[2]
  morphological profile, cell adhesion and number of cells versus untreated: decreased the number of cells
Normal fibroblasts; Homo sapiens, Fibroblast, 24 h
  IC50: > 200 µM
Normal fibroblasts; Homo sapiens, Fibroblast, 48 h
  IC50: > 200 µM
Melanoma cells
  cell cycle effect: cell-cycle deregulation
[3]; Homo sapiens, SCC-25, 24 h
  IC50: 40 ± 1.89 µM
[3]; Homo sapiens, SCC-25, 48 h
  IC50: 29.1 ± 1.45 µM

## O=c1cc(-c2ccccc2)oc2cccc(O)c12 [Compound 2, 5-hydroxy-2-phenyl-4H-chromen-4-one]
[3]; [4]
  IC50: > 200 µM
[3]; [5]
  IC50: > 200 µM

## COc1ccccc1-c1cc(=O)c2c(O)cccc2o1 [Compound 3, 5-hydroxy-2-(2-methoxyphenyl)-4H-chromen-4-one]
[3]; Homo sapiens, SCC-25, 24 h
  IC50: > 200 µM
[3]; Homo sapiens, SCC-25, 48 h
  IC50: > 200 µM

## COc1cccc(OC)c1-c1cc(=O)c2c(O)cccc2o1 [Compound 4, 5-hydroxy-2-(2,6-dimethoxyphenyl)-4H-chromen-4-one]
[3]; Homo sapiens, SCC-25, 24 h
  IC50: > 200 µM
[3]; Homo sapiens, SCC-25, 48 h
  IC50: > 200 µM

## COc1ccc(OC)c(-c2cc(=O)c3c(O)cccc3o2)c1OC [Compound 5, 5-hydroxy-2-(2,3,6-trimethoxyphenyl)-4H-chromen-4-one]
[3]; Homo sapiens, SCC-25, 24 h
  IC50: > 200 µM
[3]; Homo sapiens, SCC-25, 48 h
  IC50: > 200 µM

## COc1cccc(O)c1-c1cc(=O)c2c(O)cccc2o1 [Compound 6, 5-hydroxy-2-(2-hydroxy-6-methoxyphenyl)-4H-chromen-4-one]
[3]; [4]
  IC50: > 200 µM
[3]; [5]
  IC50: > 200 µM

## COc1ccc(O)c(-c2cc(=O)c3c(O)cccc3o2)c1OC [Compound 7, 5-hydroxy-2-(6-hydroxy-2,3-dimethoxyphenyl)-4H-chromen-4-one]
[1]
  IC50: 40.6 ± 1.65 µM
[2]
  morphological profile, cell adhesion and number of cells versus untreated: decreased the number of cells
Normal fibroblasts; Homo sapiens, Fibroblast, 24 h
  IC50: > 200 µM
Normal fibroblasts; Homo sapiens, Fibroblast, 48 h
  IC50: > 200 µM
[3]; Homo sapiens, SCC-25, 24 h
  IC50: 78.2 ± 3.25 µM
[3]; Homo sapiens, SCC-25, 48 h
  IC50: 40.6 ± 1.65 µM

## N.N.[Cl][Pt][Cl] [cPT, cisplatin, reference compound]
[2]
  morphological profile, cell adhesion and number of cells versus untreated: decreased the number of cells
Normal fibroblasts; [6]
  IC50: > 200 µM
Normal fibroblasts; [7]
  IC50: 40.5 ± 2.01 µM
[3]; [6]
  IC50: 26.1 ± 1.03 µM
[3]; [7]
  IC50: 7.58 ± 0.37 µM

From article PMC9325269, “New Polymethoxyflavones from Hottonia palustris Evoke DNA Biosynthesis-Inhibitory Activity in An Oral Squamous Carcinoma (SCC-25) Cell Line” (Molecules, 2022)
